From US7888059B2, “Highly purified and stabilized Na,K-ATPase isoforms and methods of producing same” (Yeda Research and Development Co. Ltd., priority 2006, dated 2011) come the findings set out here.

Where two headings read alike, the source gives them in different places.

Common to all, as to format: biochemical
For one series, the system named is Na,K-ATPase. As to the kind of experiment: Na,K-ATPase activity and stability with different phosphatidyl serines (FIG. 7). To be noted: for NKA activity: measured immediately after elution from the BD Talon beads. As to the method:
(§1) Urea-treated membranes were homogenized with n-dodecyl-β-maltoside (DDM:protein, 2:1 w/w) (cat. No D310, Anatrace) in a medium containing NaCl, 250 mM; Tris.HCl, 20 mM pH 7.4; imidazole, 5 mM; PMSF, 0.5 mM; and glycerol, 10%. The protein concentration could be varied from 1-5 mg/ml and DDM adjusted accordingly from 2-10 mg/ml respectively. The unsolubilized material was removed by ultracentrifugation. Purification was done by metal-chelate chromatography using BD Talon, metal affinity resin (Co^2+-chelate). The DDM-solubilized membranes were incubated overnight at 4° C. with BD Talon beads, at a ratio of 100 μl beads per supernatant from 10 mg of membranes. EDTA was added at 50-250 μM at protein concentrations 1-5 mg/ml, respectively. The beads were washed twice for five minutes with vortexing with five volumes of a solution containing NaCl, 100 mM; Tris.HCl, 20 mM pH 7.4; C12E8, 0.1 mg/ml; DOPS or SOPS 0.05 mg/ml or other lipids and cholesterol at 0.01 mg/ml, as indicated; glycerol, 10%, and imidazole, 10 mM. Protein was eluted by mixing the beads for 40 minutes at 0° C. with one volume of a solution containing imidazole, 150 mM; NaCl, 100 mM; Tris.HCl, 20 mM pH 7.4, C12E8, 0.1 mg/ml; DOPS, or SOPS 0.05 mg/ml or other lipids and cholesterol as indicated; glycerol, 10%. The eluted protein was stored at 0° C. […] Protein concentration was determined by comparative gel densitometry with pig kidney Na^+,K^+-ATPase or by Lowry assay.
(§2) Na^+,K^+-ATPase assays were done as described in (Cohen et al., 2005, J Biol Chem, 280, 16610-16618; Strugatsky et al., 2003, J Biol Chem, 278, 46064-46073). 0.1-0.2 μg of purified protein was incubated at 37° C. for 2-10 min in 0.1 ml of Na,K-ATPase reaction medium containing 130 mM NaCl; 20 mM KCl; 3 mM MgCl2; 25 mM Histidine pH 7.4. The reaction was started by addition of 2 mM ATP [^32P-ATP].
The experiment in FIG. 7 compared the stability with different chain lengths and saturation of the side chains.

Another series concerns the target T1, porcine α1β1 (Sus scrofa, UniProt P05024).
T1 construct: made in house; host or cells: Pichia pastoris SMD1165
As to the kind of experiment: Na,K-ATPase activity of porcine α1β1 with different phospholipids (FIG. 6A). To be noted: porcine α1β1, FIG. 6A. The method, then:
as §1, §2
Both DOPS and DOPI are acid phospholipids, while DOPC and DOPE have no net charge.

Series [1] concerns the target T2, human α1β1 (Homo sapiens, UniProt P05023).
T2 construct: The coding regions were excised with XbaI and subcloned; made in house; host or cells: Pichia pastoris SMD1165
As to the kind of experiment: Initial Na,K-ATPase activity of human α1β1 prepared with phospholipid with or without cholesterol. To be noted: human α1β1, initial activity following elution from the beads, 37° C. As to the method: as §1, with “mM.” for “mM. Protein was eluted by mixing the beads for 40 minutes at 0° C. with one volume of a solution containing imidazole, 150 mM; NaCl, 100 mM; Tris.HCl, 20 mM pH 7.4, C12E8, 0.1 mg/ml; DOPS, or SOPS 0.05 mg/ml or other lipids and cholesterol as indicated; glycerol, 10%. The eluted protein was stored at 0° C.”, “assay. […]” for “assay.”

The target of series [2] is T2, human α1β1. As to the kind of experiment: Stabilization of human α1β1 Na,K-ATPase activity over time (lipids, sterols, FXYD1). To be noted: for stabilizing effect of sterol on Na,K-ATPase activity: human α1β1 prepared with DOPS or DOPC, FIGS. 9A-B. As to the method:
as §1, §2
(§3) Aliquots of the preparations were incubated either at 37° C. or 45° C., respectively, for the indicated times, and then returned to 0° C., prior to measurement of Na,K-ATPase activity.

For series [3], the system named is human α1β1. Described as above. As to the method:
as §1, §2, §3

Series [4] has as its target T3, human α2β1 (Homo sapiens, UniProt P50993).
T3 construct: The coding regions were excised with XbaI and subcloned; made in house; host or cells: Pichia pastoris SMD1165 (clone "b", induced at 20° C.)
Description: Stabilization of human α2β1 Na,K-ATPase activity over time (lipids, sterols, FXYD1). To be noted: for stabilizing effect of sterol on α2β1 complex: 0° C., together with DOPS. As to the method: as §1, §2, §3

The target in series [5] is T3, human α2β1. Description: biochemical. As to the method: as §2
(§4) The inhibitor was added directly to the reaction medium at 37° C. immediately prior to addition of ATP, which starts the reaction.

In series [6] the target is T2, human α1β1. As to the kind of experiment: biochemical. As to the method:
as §2, §4

`CCCCCCCCCCCCCC(=O)OC[C@H](COP(=O)(O)OC[C@H](N)C(=O)O)OC(=O)CCCCCCCCCCCCC` [DMPS, 1,2-Dimyristoyl-sn-Glycero-3-[Phospho-L-Serine]] had an NKA activity in the series on Na,K-ATPase of 11.48 µmol/min/mg.
For the molecule `CCCCCCCC/C=C\CCCCCCCC(=O)OC[C@H](COP(=O)([O-])OCC[N+](C)(C)C)OC(=O)CCCCCCC/C=C\CCCCCCCC` [DOPC, 1,2-Dioleoyl-sn-Glycero-3-Phosphocholine], the “maintenance of Na,K-ATPase activity with phospholipid” value (“maintenance of Na,K-ATPase activity” for short) on porcine α1β1 is “somewhat lower initial Na,K-ATPase activity at 37 °C than for DOPS”. Besides, at human α1β1 [1], the “Na, K-ATPase activity” value worked out at 14.28 µmol/min/mg.
With `CCCCCCCC/C=C\CCCCCCCC(=O)OC[C@H](COP(=O)(O)OCCN)OC(=O)CCCCCCC/C=C\CCCCCCCC` [DOPE, 1,2-Dioleoyl-sn-Glycero-3-Phosphoethanolamine], on porcine α1β1, the “maintenance of Na,K-ATPase activity” value is recorded as “DOPS>DOPI>>DOPE”.
In the case of `CCCCCCCC/C=C\CCCCCCCC(=O)OC[C@H](COP(=O)(O)OC1C(O)C(O)C(O)[C@@H](O)C1O)OC(=O)CCCCCCC/C=C\CCCCCCCC` (some centres unmarked) [DOPI, 1,2-Dioleoyl-sn-Glycero-3-Phosphoinositol], the “maintenance of Na,K-ATPase activity” value on porcine α1β1 is listed as “DOPS>DOPI>>DOPE”.
`CCCCCCCC/C=C\CCCCCCCC(=O)OC[C@H](COP(=O)(O)OC[C@H](N)C(=O)O)OC(=O)CCCCCCC/C=C\CCCCCCCC` [DOPS, 1,2-Dioleoyl-sn-Glycero-3-[Phospho-L-Serine]] registered an NKA activity in the series with Na,K-ATPase of 11.42 µmol/min/mg. In addition, at human α1β1 [2] (37° C., human α1β1 prepared with DOPS, without PLM), the “half-time for loss of activity” value is recorded as “about 70 minutes”. On human α1β1 [2] (after 120 minutes at 37° C., human α1β1 prepared with DOPS, without PLM), the “remaining activity, of initial activity” value is recorded as “approximately 20%”. Also, the “maintenance of Na,K-ATPase activity” value on porcine α1β1 is on record as “DOPS>DOPI>>DOPE”. On human α1β1 [1], the “Na, K-ATPase activity” value turned out to be 11.64 µmol/min/mg.
The molecule `CCCCCCCCCCCCCCCC(=O)OC[C@H](COP(=O)(O)OC[C@H](N)C(=O)O)OC(=O)CCCCCCCCCCCCCCC` [DPPS, 1,2-Dipalmitoyl-sn-Glycero-3-[Phospho-L-Serine]] showed an NKA activity with Na,K-ATPase of 6.46 µmol/min/mg.
As for `CCCCCCCCCCCCCCCCCC(=O)OC[C@H](COP(=O)(O)OC[C@H](N)C(=O)O)OC(=O)CCCCCCCCCCCCCCCCC` [DSPS, 1,2-Distearoyl-sn-Glycero-3-[Phospho-L-Serine]], in the series with Na,K-ATPase, the NKA activity worked out at 4.72 µmol/min/mg.
Turning to `CCCCCCCC/C=C\CCCCCCCC(=O)O[C@H](COC(=O)CCCCCCCCCCCCCCC)COP(=O)(O)OC[C@H](N)C(=O)O` [POPS, 1-Palmitoyl-2-Oleoyl-sn-Glycero-3-[Phospho-L-Serine]], the NKA activity in the series on Na,K-ATPase worked out at 12.58 µmol/min/mg.
In the case of `CCCCCCCC/C=C\CCCCCCCC(=O)O[C@H](COC(=O)CCCCCCCCCCCCCCCCC)COP(=O)(O)OC[C@H](N)C(=O)O` [SOPS, I-Stearoyl-2-Oleoyl-sn-Glycero-3-[Phospho-L-Serine]], the “stability of Na,K-ATPase activity over time” value with Na,K-ATPase (0° C., FIG. 7) is “declined even more slowly than with the standard DOPS”. In the series with Na,K-ATPase, the NKA activity is 11.92 µmol/min/mg. Moreover, the “stabilizing effect of phosphatidyl serine on α1β1” value in the series on human α1β1 [3] (37° C. and 0° C., FIGS. 8A-B (porcine and human α1β1)) is recorded as “significantly more stabilizing than DOPS”.
Take `CC(C)CCC[C@@H](C)[C@H]1CC[C@H]2[C@@H]3CC=C4C[C@@H](O)CC[C@]4(C)[C@H]3CC[C@]12C` [cholesterol]: the “stabilizing effect of sterol on α2β1 complex” value at human α2β1 [4] is “greatly stabilized”. Moreover, the “stabilizing effect of sterol on Na,K-ATPase activity” value at human α1β1 [2] (37° C.) is recorded as “greatly stabilizes”.
Consider `C[C@H]1O[C@@H](O[C@H]2[C@@H](O)C[C@H](O[C@H]3[C@@H](O)C[C@H](O[C@H]4CC[C@@]5(C)[C@H](CC[C@@H]6[C@@H]5C[C@@H](O)[C@]5(C)[C@@H](C7=CC(=O)OC7)CC[C@]65O)C4)O[C@@H]3C)O[C@@H]2C)C[C@H](O)[C@@H]1O` [digoxin], for which the “offset (activity not inhibited), α2β1” value on human α2β1 [5] is listed as 0.058±0.016. Also, on human α1β1 [6], the “offset (activity not inhibited), α1β1” value is recorded as “no significant offset”.
Regarding `CC(C)[C@@H](C)/C=C/[C@@H](C)[C@H]1CC[C@H]2C3=CC=C4C[C@@H](O)CC[C@]4(C)[C@H]3CC[C@]12C` [ergosterol], the “stabilizing effect of sterol on α2β1 complex” value on human α2β1 [4] is on record as “much less effective than cholesterol”. On human α1β1 [2] (37° C.), the “stabilizing effect of sterol on Na,K-ATPase activity” value is given as “only a minor stabilizing effect”.
The IC50 is the midpoint of a concentration-inhibition curve. The low end stands for greater potency, the high end for weaker potency. `CO[C@H]1[C@H](O)[C@H](O[C@H]2CC[C@@]3(C)[C@H](CC[C@@H]4[C@@H]3CC[C@]3(C)[C@@H](C5=CC(=O)OC5)CC[C@]43O)C2)O[C@@H](C)[C@@H]1O` [neriifolin]: at human α2β1 [5] (37° C., FIG. 18B), the “offset, α2” value is 0.12. Also, the IC50 at human α2β1 [5] (K0.5 for inhibition, α2, 37° C., FIG. 18B, reaction time not stated) was 29 ± 4.1 nM; at human α1β1 [6] (K0.5 for inhibition, α1, 37° C., FIG. 18B, reaction time not stated), 50 ± 7 nM. In addition, the “offset, α1” value on human α1β1 [6] (37° C., FIG. 18B) is 0. In addition, the α1/α2 preference result on human α1β1 [6] (conditions of the Na,K-ATPase reaction at 37° C.) is recorded as “no significant α1/α2 preference”.
On to `C[C@@H]1O[C@@H](O[C@H]2C[C@@H](O)[C@]3(CO)[C@H]4[C@H](O)C[C@]5(C)[C@@H](C6=CC(=O)OC6)CC[C@]5(O)[C@@H]4CC[C@]3(O)C2)[C@H](O)[C@H](O)[C@H]1O` [ouabain], for which the “offset (activity not inhibited), α2β1” value on human α2β1 [5] (37° C., 60 minutes) stood at 0.056±0.017; at human α2β1 [5] (37° C., reaction 10 minutes) it was 0.069±0.01. On human α1β1 [6] (37° C., reaction 10 minutes), the “extent of inhibition of α1β1” value is reported as “fully inhibited”.
Turning to “PLM: human FXYD1, subsidiary subunit of Na,K-ATPase, Genbank Accession No. H23593”, the “stability of Na,K-ATPase activity” value with human α2β1 [4] (37° C., α2β1 prepared with SOPS/cholesterol with PLM) is “essentially stable for 60 minutes at 37 °C”; in the series with human α1β1 [3] (37° C., human α1β1, PLM with DOPS preparation, SOPS/cholesterol without PLM) it was “essentially no loss of activity up to 120 minutes”.
